Data taken from patent US10975116B2, “Methods of treating and preventing gastrointestinal motility disorders using aminosterols” (Enterin, Inc., priority 2013, dated 2021).
Entries after “also recorded” stand apart in the source; their conditions may differ.

Legend:
[1] = system: intrinsic primary afferent neurons (IPANs) of the colon; test: Patch-clamp of IPANs of the colon, squalamine applied to lumen, intact epithelium; type: cell-based, mouse; settings: 30 μM, brief puff onto lumen/epithelium
Description: In this experiment the outer adventitial layer of the mouse colon is peeled away exposing the IPANs. Individual IPANs within the myenteric plexus of the wall of the colon are patched using a patch-clamp apparatus. These cells represent the major neuronal population that communicate sensory data from the gut. They synapse with the various nerve networks within the gut that influence muscle and secretory activity, as well as connecting with vagal nerve endings. Administration of squalamine at 30 μM to the lumen (applied via a 50 ms “puff” of solution) leads to a very sustained (10 min) burst of electrical activity (FIG. 3).

[2] = system: pancreatic adenocarcinoma; test: Oral squalamine in Stage 4b pancreatic cancer, single subject; type: in vivo, human
Description: A person presented with abdominal discomfort, weight loss, and malaise. After considerable medical consultations a diagnosis of pancreatic adenocarcinoma was made. The subject was treated with chemotherapy and experienced a severe adverse reaction, which included ascites and pleural effusion. […] In August 2013, the subject was evaluated for a clinical trial at TGEN in Arizona, but not admitted due to the extensive cancer evident in the pancreas, liver, and nodes.
In late August 2013, the subject was begun on 50 mg/day, then increased to 100 mg/day after a week. The subject began once monthly cycles of cisplatin and 5-FU. […] The overall level of performance of the individual continues to improve, but the ascites and pleural effusions persist. […] All concurrent chemotherapy has stopped. Squalamine treatment continues.

[3] = system: intrinsic primary afferent neurons (IPANs) of the colon; test: Patch-clamp of IPANs of the colon, epithelial lining peeled away; type: cell-based, mouse
Description: In this Example the same procedure as that described in Example 12 was followed except that the epithelial lining of the colon was peeled away prior to application of squalamine to the lumen. Signals from individual IPANs were recorded. Concentrations of squalamine as low as 1 uM could now stimulate a robust response, similar quantitatively (and qualitatively) to concentrations 30-100 fold higher, when an intact epithelium was present.

[4] = system: colon migrating motor complex (MMC); test: Colonic motility and intraluminal pressure in excised colon segment; design: species or system mouse; settings: squalamine added to the colonic lumen
Description: A segment of colon was excised from a mouse, and one end was attached to a glass tube housing a pressure sensor. A video camera recorded the visible contractions of the segment. When squalamine was added to the colonic lumen, the frequency of contractions increased about 2 fold, representing coordinated peristaltic waves that move toward the rectum.

[5] = system: N-terminally acetylated alpha-synuclein bound to DOPE/DOPS/DOPC vesicles; test: Displacement of alpha-synuclein from negatively charged vesicles (circular dichroism); type: binding
Description: Alpha-synuclein was mixed with a preparation of vesicles consisting of DOPE (50%), DOPS (30%), DOPC (20%). The concentration of lipid was 2.4 mM; the concentration of N-terminally acetylated alpha-synuclein was 10 μM. The interaction was followed by circular dichoroism. The concentration of squalamine was increased in 40 μM increments. […] At a ratio of lipid to squalamine of 15:1, full displacement of alpha-synuclein was observed. Addition of squalamine to a solution of alpha-synuclein alone had no effect on the circular dichroism spectrum.

GLP-1 = GLP-1 release into the blood stream after oral squalamine and lipid/carbohydrate meal (ELISA); type: in vivo, human
Description: Enteroendocrine cells, which contain entreric hormones, are known to respond to a variety of stimuli they contact in the intestinal lumen, and release hormones into the submucosa and subsequently into the bloodstream. In particular, GLP-1, the product of the L-cell, is known to have motility effects on the small intestine that resemble those observed after oral administration of squalamine. In this example, a lipid/carbohydrate meal was administered which is known to provoke the release of GLP-1 into the bloodstream. The GLP-1 response of the GI tract to the meal was compared in the presence or absence of squalamine, with blood levels of GLP-1 measured using an ELISA based immunoassay.
• 1. Subject (BMI: […], no medical illness) was fasted overnight • 2. IV catheter 18 gauge implanted in R […] fossa • 3. Blood samples drawn at 9:30 A, 11 A, 11:30 A, 12:30 P, 1:30 P, 2 P, 2:30, 3, 3:30, 4:30, 5:30 • 4. Empty capsule and water at 10:30 A • 5. Lipid/carbohydrate meal (2 slices of white bread, each with 5.5 gms butter) at 2 P • 6. Blood samples: 2 ml into Becton-Dickenson Protease-inhibited Biomarker tubes; 3 ml into standard red top blood collection tubes. • 7. All samples were immediately spun at 3000 rpm×15 and serum or plasma aliquotted into 1.5 ml eppendorfs and then stored at −80° C. Squalamine Response • 1. Subject rested 3 days and re-evaluated 4 days after the Control response • 2. Fasted overnight • 3. IV catheter implanted • 4. Samples drawn at 10, 11, 11:30, 12:30, 1:30, 2:30, 3, 3:30, 4:30, 5:30 • 5. Squalamine capsule, 200 mg at 10:30 A • 6. Bread and butter, 2 P • 7. Blood samples collected and processed as in the Control study
GLP-1 analyses (Total immunoreactive GLP-1): A Millipore ELISA kit was used (Cat #EZGLP1T-36K).

Substance: squalamine
- duration of burst of electrical activity / action potentials [1]: 10 min
- PET/CT scan ([2]; 100 mg/day with monthly cisplatin and 5-FU, February 2014): complete loss of all PET active masses
- cytology of the peritoneal fluid ([2]; 100 mg/day, ongoing): remains negative for abnormal cells
- PET/CT scan ([2]; 50 then 100 mg/day from late August 2013, with monthly cisplatin and 5-FU, early December 2013): dramatic reduction in PET intensity of all previously active cancer
- lowest concentration stimulating a robust IPAN response ([3]; epithelial lining peeled away): 1 µM
- fold higher concentrations needed for similar response when an intact epithelium was present ([3]; intact versus stripped epithelium): 30-100 fold
- increase of the frequency of contractions [4]: about 2 fold
- peak pressure of MMC waves ([4]; versus before application): did not differ; also recorded: no apparent effect
- amount of alpha-synuclein membrane bound with increasing squalamine ([5]; lipid 2.4 mM, alpha-synuclein 10 μM, squalamine in 40 μM increments): linear decrease
- effect on circular dichroism spectrum of alpha-synuclein alone ([5]; no vesicles): no effect
- Squalamine Response: Clinical (GLP-1; 200 mg capsule at 10:30 A, light headedness 11 A-12:15, nausea 1:45, diarrhea 2 P, 2:20, 2:36, 3:15): Episodes of light headedness; also recorded: Episode of mild nausea; also recorded: Passage of watery diarrhea
- effect on the release of GLP-1 from the small intestine (GLP-1; 200 mg oral versus empty capsule, same subject): No significant effect
- GLP-1 blood level (GLP-1; blood sample at 1:30, 200 mg capsule at 10:30 A, meal at 2 P): 9 pM
- GLP-1 blood level (GLP-1; blood sample at 2:30, 200 mg capsule at 10:30 A, meal at 2 P): 8 pM
- GLP-1 blood level (GLP-1; blood sample at 3:00, 200 mg capsule at 10:30 A, meal at 2 P): 8 pM
- GLP-1 blood level (GLP-1; blood sample at 3:30, 200 mg capsule at 10:30 A, meal at 2 P): 6 pM
- GLP-1 blood level (GLP-1; blood sample at 4:30, 200 mg capsule at 10:30 A, meal at 2 P): 5 pM
- GLP-1 blood level (GLP-1; blood sample at 5:30, 200 mg capsule at 10:30 A, meal at 2 P): 3 pM
- GLP-1 blood level (GLP-1; blood sample at 10 (before 200 mg capsule at 10:30 A), total immunoreactive GLP-1): 6 pM
- GLP-1 blood level (GLP-1; blood sample at 11:30, 200 mg capsule at 10:30 A, meal at 2 P): 4 pM
- GLP-1 blood level (GLP-1; blood sample at 11, 200 mg capsule at 10:30 A, meal at 2 P): 5 pM
- GLP-1 blood level (GLP-1; blood sample at 12:30, 200 mg capsule at 10:30 A, meal at 2 P): 10 pM
